Structures can show the parent of a compound that is named as a salt.

In one experiment the target is hNav1.7 (Homo sapiens (Human), UniProt Q15858). In words: Tritiated sulfonamide competitive binding to membranes from cells expressing hNav1.7 and the β1 subunit.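 Note: Filter-bound radioactivity counted by liquid scintillation, nonspecific binding defined with excess unlabelled ligand, IC50 fitted to percent inhibition of specific binding.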
Chain of hNav1.7 (Q15858 other isoform, or with tags, fused parts or gaps): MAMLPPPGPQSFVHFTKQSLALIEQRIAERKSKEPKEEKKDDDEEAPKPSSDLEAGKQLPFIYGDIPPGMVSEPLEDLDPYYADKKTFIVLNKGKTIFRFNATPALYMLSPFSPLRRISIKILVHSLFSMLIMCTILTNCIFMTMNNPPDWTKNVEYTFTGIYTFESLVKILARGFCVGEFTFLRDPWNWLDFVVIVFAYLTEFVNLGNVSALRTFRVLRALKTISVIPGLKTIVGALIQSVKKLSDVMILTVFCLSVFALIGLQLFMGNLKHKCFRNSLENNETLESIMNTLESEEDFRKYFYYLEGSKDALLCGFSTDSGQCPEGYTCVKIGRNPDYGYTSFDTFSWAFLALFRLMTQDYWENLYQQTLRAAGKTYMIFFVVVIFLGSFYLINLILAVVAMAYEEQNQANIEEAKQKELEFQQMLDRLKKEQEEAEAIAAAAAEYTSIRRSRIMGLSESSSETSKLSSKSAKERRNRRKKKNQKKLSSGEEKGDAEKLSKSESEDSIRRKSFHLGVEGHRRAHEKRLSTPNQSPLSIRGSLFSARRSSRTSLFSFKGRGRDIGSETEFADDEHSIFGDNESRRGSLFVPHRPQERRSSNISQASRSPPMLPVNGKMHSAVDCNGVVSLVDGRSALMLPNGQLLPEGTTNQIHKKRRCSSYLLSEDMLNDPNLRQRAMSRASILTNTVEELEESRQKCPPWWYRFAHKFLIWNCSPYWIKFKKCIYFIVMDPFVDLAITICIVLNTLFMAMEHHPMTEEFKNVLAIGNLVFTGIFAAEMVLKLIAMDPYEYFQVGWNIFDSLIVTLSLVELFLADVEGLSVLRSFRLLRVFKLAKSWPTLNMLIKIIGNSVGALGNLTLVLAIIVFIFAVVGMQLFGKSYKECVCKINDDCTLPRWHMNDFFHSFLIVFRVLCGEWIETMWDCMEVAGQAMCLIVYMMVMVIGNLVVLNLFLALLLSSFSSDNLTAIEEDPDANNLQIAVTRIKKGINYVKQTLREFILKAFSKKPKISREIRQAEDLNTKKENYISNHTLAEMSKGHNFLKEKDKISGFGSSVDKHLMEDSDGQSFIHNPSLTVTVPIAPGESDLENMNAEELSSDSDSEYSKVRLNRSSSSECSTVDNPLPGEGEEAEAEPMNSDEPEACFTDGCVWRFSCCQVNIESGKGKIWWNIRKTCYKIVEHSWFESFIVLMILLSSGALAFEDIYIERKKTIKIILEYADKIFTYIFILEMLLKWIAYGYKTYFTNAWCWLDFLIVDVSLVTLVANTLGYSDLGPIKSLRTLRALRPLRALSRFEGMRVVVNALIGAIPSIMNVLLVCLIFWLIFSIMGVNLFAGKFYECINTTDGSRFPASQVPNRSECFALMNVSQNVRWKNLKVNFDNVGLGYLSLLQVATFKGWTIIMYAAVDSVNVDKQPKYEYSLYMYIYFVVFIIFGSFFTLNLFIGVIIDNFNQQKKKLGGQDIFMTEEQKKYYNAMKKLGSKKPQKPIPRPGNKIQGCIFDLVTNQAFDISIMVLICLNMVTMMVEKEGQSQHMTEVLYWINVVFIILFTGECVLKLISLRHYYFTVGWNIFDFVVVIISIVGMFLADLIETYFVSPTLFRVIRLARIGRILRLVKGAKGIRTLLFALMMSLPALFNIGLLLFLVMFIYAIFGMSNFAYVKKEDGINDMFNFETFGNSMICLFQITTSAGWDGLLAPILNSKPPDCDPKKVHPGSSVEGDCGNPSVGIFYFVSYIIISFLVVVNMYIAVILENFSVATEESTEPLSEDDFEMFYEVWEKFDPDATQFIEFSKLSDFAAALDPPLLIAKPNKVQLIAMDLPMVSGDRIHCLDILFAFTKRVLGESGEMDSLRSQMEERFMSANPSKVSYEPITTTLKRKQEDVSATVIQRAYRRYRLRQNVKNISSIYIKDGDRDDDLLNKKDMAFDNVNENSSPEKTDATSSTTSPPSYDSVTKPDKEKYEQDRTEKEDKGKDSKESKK
Chain of hNav1.7 (Q07699 19-218 partner): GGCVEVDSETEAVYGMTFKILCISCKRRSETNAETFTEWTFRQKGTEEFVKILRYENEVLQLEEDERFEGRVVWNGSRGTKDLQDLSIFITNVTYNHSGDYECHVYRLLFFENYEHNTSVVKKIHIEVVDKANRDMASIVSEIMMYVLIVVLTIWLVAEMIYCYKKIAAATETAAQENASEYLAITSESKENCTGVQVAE
Conditions: not given
In turn, `O=C(NS(=O)(=O)C1CC1)c1cc(C2CC2)c(CN2CCC(OCc3cc(Cl)cc(Cl)c3)CC2)cc1F` [Example 512, 5-cyclopropyl-N-(cyclopropylsulfonyl)-4-((4-((3,5-dichlorobenzyl)oxy)piperidin-1-yl)methyl)-2-fluorobenzamide, trifluoroacetic acid salt] showed an IC50 of 16.7 nM. The same measure, in the same setting: the value for `O=C(NS(=O)(=O)C1CC1)c1cc(C2CC2)c(O[C@@H]2CCCN(Cc3ccc(F)cc3F)C2)cc1F` [Example 9, (R)-5-cyclopropyl-N-(cyclopropylsulfonyl)-4-((1-(2,4-difluorobenzyl)-piperidin-3-yl)oxy)-2-fluorobenzamide] was 3.5 nM. The same measure, in the same setting: then `CS(=O)(=O)NC(=O)c1cc(C2CC2)c(CN2CCC(Oc3cc(C(F)(F)F)cc(Cl)c3F)CC2)cc1F` [Example 536, 4-((4-(3-Chloro-2-fluoro-5-(trifluoromethyl)phenoxy)piperidin-1-yl)methyl)-5-cyclopropyl-2-fluoro-N-(methylsulfonyl)benzamide, trifluoroacetic acid salt], with 5 nM. The same measure, in the same setting: the value for `CS(=O)(=O)NC(=O)c1cc(C2CC2)c(OCC2CCN(Cc3ccc(F)c(C#N)c3)CC2)cc1F` [Example 591, 4-((1-(3-cyano-4-fluorobenzyl)piperidin-4-yl)methoxy)-5-cyclopropyl-2-fluoro-N-(methylsulfonyl)benzamide] was 240 nM.

Still in this experiment, the particulars now being: read-out: Ligand Binding Assay; 100 pM [3H]compound, membranes with hNav1.7 and β1 subunit, 18 h, room temperature.
Turning to `CS(=O)(=O)NC(=O)c1cc(C2CC2)c(OCC2CCN(Cc3ccc(Cl)cc3C(F)(F)F)CC2)cc1F` [Example 579, 4-((1-(4-chloro-2-(trifluoromethyl)benzyl)piperidin-4-yl)methoxy)-5-cyclopropyl-2-fluoro-N-(methylsulfonyl)benzamide], the IC50 was 2.9 nM. Consider `C[C@@H]1CC[C@@H](Oc2cc(F)c(C(=O)NS(=O)(=O)N3CCC3)cc2C2CC2)CN1Cc1ccc(F)cc1Cl` [Example 322, N-(azetidin-1-ylsulfonyl)-4-(((3R,6R)-1-(2-chloro-4-fluorobenzyl)-6-methylpiperidin-3-yl)oxy)-5-cyclopropyl-2-fluorobenzamide], for which the IC50 is 1.9 nM.

Take `C[C@@H]1CC[C@@H](COc2cc(F)c(C(=O)NS(C)(=O)=O)cc2C2CC2)CN1Cc1cc(Cl)cc(Cl)c1` [Example 341, 5-cyclopropyl-4-(((3R,6R)-1-(3,5-dichlorobenzyl)-6-methylpiperidin-3-yl)methoxy)-2-fluoro-N-(methylsulfonyl)benzamide, trifluoroacetic acid salt]: the IC50 came to 4.4 nM.

As for `C[C@H]1[C@H](Oc2cc(F)c(C(=O)NS(C)(=O)=O)cc2C2CC2)CCCN1Cc1cc(Cl)cc(Cl)c1` [Example 331, 5-cyclopropyl-4-(((2S,3R)-1-(3,5-dichlorobenzyl)-2-methylpiperidin-3-yl)oxy)-2-fluoro-N-(methylsulfonyl)benzamide, trifluoroacetic acid salt], the IC50 worked out at 32.2 nM.

On to `C[C@@H](c1cc(Cl)cc(Cl)c1)N1CCC(COc2cc(F)c(C(=O)NS(=O)(=O)C3CC3)cc2Cl)CC1` [Example 403, (S)-5-chloro-N-(cyclopropylsulfonyl)-4-((1-(1-(3,5-dichlorophenyl)ethyl)piperidin-4-yl)methoxy)-2-fluorobenzamide, trifluoroacetic acid salt], for which the IC50 stood at 17 nM. On the same count and under the same terms, then `CC1(COc2cc(F)c(C(=O)NS(=O)(=O)C3CC3)cc2C2CC2)CN(c2cc(Cl)c(C(F)(F)F)cn2)C1` [Example 486, 4-((1-(4-chloro-5-(trifluoromethyl)pyridin-2-yl)-3-methylazetidin-3-yl)methoxy)-5-cyclopropyl-N-(cyclopropylsulfonyl)-2-fluorobenzamide, trifluoroacetic acid salt], with 5.6 nM. Turning to `CS(=O)(=O)NC(=O)c1cc(C2CC2)c(OC2CC3(C2)CN(Cc2ccc(F)cc2Cl)C3)cc1F` [Example 320, 4-((2-(2-chloro-4-fluorobenzyl)-2-azaspiro[3.3]heptan-6-yl)oxy)-5-cyclopropyl-2-fluoro-N-(methylsulfonyl)benzamide, trifluoroacetic acid salt], the IC50 was 213 nM.

On to `CS(=O)(=O)NC(=O)c1cc(C2CC2)c(O[C@@H]2CCCN(CC3CCC4(CCC4)CC3)C2)cc1F` [Example 444, (R)-5-cyclopropyl-2-fluoro-N-(methylsulfonyl)-4-((11-(spiro[3.5]nonan-7-ylmethyl)piperidin-3-yl)oxy)benzamide, trifluoroacetic acid salt], for which the IC50 is 4.5 nM. On the same count and under the same terms, then `CC(c1cc(Cl)cc(Cl)c1)N1CC(COc2cc(F)c(C(=O)NS(C)(=O)=O)cc2C2CC2)C1` (stereo not shown) [Example 98, 5-Cyclopropyl-4-((1-(1-(3,5-dichlorophenyl)ethyl)azetidin-3-yl)methoxy)-2-fluoro-N-(methylsulfonyl)benzamide], with 7.51 nM. With `CC[C@@H](c1cc(Cl)cc(Cl)c1)N1CCC(COc2cc(F)c(C(=O)NS(C)(=O)=O)cc2C2CC2)CC1` [Example 241, (S)-5-cyclopropyl-4-((1-(1-(3,5-dichlorophenyl)propyl)piperidin-4-yl)methoxy)-2-fluoro-N-(methylsulfonyl)benzamide], the IC50 was 2.7 nM.

With `CS(=O)(=O)NC(=O)c1cc(C2CC2)c(OCC2CCN(C(=O)c3ccc(Cl)c(Cl)c3)CC2)cc1F` [Example 232, 5-Cyclopropyl-4-((1-(3,4-dichlorobenzoyl)piperidin-4-yl)methoxy)-2-fluoro-N-(methylsulfonyl)benzamide], the IC50 worked out at 64 nM. Consider `COc1cccc(CN2CCC(C)(COc3cc(F)c(C(=O)NS(C)(=O)=O)cc3C3CC3)CC2)n1` [Example 576], for which the IC50 came out at 270 nM. Still for that read-out and setting: the value for `CS(=O)(=O)NC(=O)c1cc(C2CC2)c(OCC2CCN(S(=O)(=O)c3cccc(C(F)(F)F)c3)CC2)cc1F` [Example 374, 5-cyclopropyl-2-fluoro-N-(methylsulfonyl)-4-((1-((3-(trifluoromethyl)phenyl)sulfonyl)piperidin-4-yl)methoxy)benzamide] was 23.1 nM. Same read-out and setting: then `O=C(NS(=O)(=O)C1CC1)c1cc(C2CC2)c(CN2CCC[C@@H](Oc3cc(Cl)cc(Cl)c3)C2)cc1F` [Example 55, (R)-5-cyclopropyl-N-(cyclopropylsulfonyl)-4-((3-(3,5-dichlorophenoxy)piperidin-1-yl)methyl)-2-fluorobenzamide], with 23.3 nM. On the same count and under the same terms, then `CS(=O)(=O)NC(=O)c1cc(C2CC2)c(OCC2(F)CCN(Cc3cc(C(F)(F)F)cc(C4CC4)n3)CC2)cc1F` [Example 596], with 59.9 nM. `O=C(NS(=O)(=O)C1CC1)c1cc(C2CC2)c(CN2CCC[C@H](Oc3cc(Cl)cc(Cl)c3)C2)cc1F` [Example 53, (S)-5-cyclopropyl-N-(cyclopropylsulfonyl)-4-((3-(3,5-dichlorophenoxy)-piperidin-1-yl)methyl)-2-fluorobenzamide]: the IC50 stood at 8 nM. On the same count and under the same terms, then `O=C(NS(=O)(=O)N1CCC1)c1cc(C2CC2)c(OCC2CCN(C3(c4cc(Cl)cc(Cl)c4)COC3)CC2)cc1F` [Example 176], with 9.1 nM.

As for `CS(=O)(=O)NC(=O)c1cc(C2CC2)c(OCC2CCN(CC3(C(F)(F)F)CC3)CC2)cc1F` [Example 252, 5-cyclopropyl-2-fluoro-N-(methylsulfonyl)-4-((1-((1-(trifluoromethyl)cyclopropyl)methyl)piperidin-4-yl)methoxy)benzamide], the IC50 worked out at 50 nM. Same read-out and setting: the value for `CCS(=O)(=O)NC(=O)c1cc(C2CC2)c(OCC2CCN([C@@H](COC)c3ccc(Cl)cc3Cl)CC2)cc1F` [Example 287, (R)-5-cyclopropyl-4-((1-(1-(2,4-dichlorophenyl)-2-methoxyethyl)piperidin-4-yl)methoxy)-N-(ethylsulfonyl)-2-fluorobenzamide] was 3.5 nM; that for `C[C@H](c1cc(F)cc(Cl)c1)N1CCC(COc2cc(F)c(C(=O)NS(C)(=O)=O)cc2C2CC2)CC1` (single isomer, unassigned) [Example 230] was 4.4 nM. In the case of `CC(C)Oc1ncc(CN2CCC(COc3cc(F)c(C(=O)NS(C)(=O)=O)cc3C3CC3)CC2)cc1Cl` [Example 128, 4-((1-((5-Chloro-6-isopropoxypyridin-3-yl)methyl)piperidin-4-yl)methoxy)-5-cyclopropyl-2-fluoro-N-(methylsulfonyl)benzamide], the IC50 was 5.6 nM. `CS(=O)(=O)NC(=O)c1cc(C2CC2)c(OCC2CCN(S(=O)(=O)c3ccc4ccccc4c3)CC2)cc1F` [Example 388, 5-cyclopropyl-2-fluoro-N-(methylsulfonyl)-4-((1-(naphthalen-2-ylsulfonyl)piperidin-4-yl)methoxy)benzamide]: the IC50 came to 16.3 nM. The same measure, in the same setting: then `CS(=O)(=O)NC(=O)c1cc(C2CC2)c(OCC2CN(Cc3cc(Cl)cc(Cl)c3)C2)cc1F` [Example 132, 5-Cyclopropyl-4-((1-(3,5-dichlorobenzyl)azetidin-3-yl)methoxy)-2-fluoro-N-(methylsulfonyl)benzamide], with 14 nM; and `O=C(NS(=O)(=O)C1CC1)c1cc(C2CC2)c(OCC2CCN(C(c3ccc(Cl)cc3)c3ccc(Cl)cc3)CC2)cc1F` [Example 400, 4-((1-(bis(4-chlorophenyl)methyl)piperidin-4-yl)methoxy)-5-cyclopropyl-N-(cyclopropylsulfonyl)-2-fluorobenzamide, trifluoroacetic acid salt], with 2.1 nM.

Consider `O=C(NS(=O)(=O)C1CC1)c1cc(C2CC2)c(OCC2CCN(C(c3cccc(Cl)c3)c3cccc(Cl)c3)CC2)cc1F` [Example 401, 4-((1-(bis(3-chlorophenyl)methyl)piperidin-4-yl)methoxy)-5-cyclopropyl-N-(cyclopropylsulfonyl)-2-fluorobenzamide, trifluoroacetic acid salt], for which the IC50 came to 3.1 nM. As for `O=C(NS(=O)(=O)C1CC1)c1cc(C2CC2)c(OCC2CCN(C(=O)c3ccc(Cl)c(Cl)c3)CC2)cc1F` [Example 233, 5-Cyclopropyl-N-(cyclopropylsulfonyl)-4-((1-(3,4-dichlorobenzoyl)piperidin-4-yl)methoxy)-2-fluorobenzamide], the IC50 amounted to 31 nM. On the same count and under the same terms, the value for `CS(=O)(=O)NC(=O)c1cc(C2CC2)c(OCC2CCN(Cc3ccc(Cl)c(F)c3)CC2)cc1F` [Example 138, 4-((1-(4-Chloro-3-fluorobenzyl)piperidin-4-yl)methoxy)-5-cyclopropyl-2-fluoro-N-(methylsulfonyl)benzamide] was 11.2 nM.

(Values after patent US9546164B2 (GENENTECH, INC., priority 2013, dated 2017).)
